According to patent US11963961B2, “Combination therapy comprising an ACC inhibitor” (Gilead Sciences, Inc., priority 2017, dated 2024):
Where two headings read alike, the source gives them in different places.

Key:
[1] = system: subjects with steatosis and F1-F3 fibrosis / NASH; settings: Compound 1 20 mg; for ≥30% reduction in MRI-PDFF, % of subjects: 12 weeks
Method: Ten subjects with steatosis (MRI-PDFF≥10%) and F1-F3 fibrosis (MRE≥2.88 kPa but non-cirrhotic based on FibroText <0.75, historical imaging and liver biopsy) were treated 20 mg Compound 1 for 12 weeks.
Four of the ten subjects were on fish oil or fenofibrate at baseline and continued the concomitant medication for the duration of the study. Throughout the study subjects were monitored for safety (adverse events, laboratory abnormalities), liver biochemistry, serum markers of fibrosis (ELF and its components TIMP-1, hyaluronic acid, PIII-NP) and cell death (CK18 M30 and M65), liver stiffness (MRE) and fat (MRI-PDFF) and the effect on de novo lipogensis was assessed using heavy water labeling.
The four subjects were analyzed in conjunction with eight subjects from the study described in Example 1. These twelve subjects were on fish oil or fibrates for at least six weeks of the study and included those who were on fish oil or fibrates at baseline or who had graded hypertriglyceridemia and were given fish oil or fibrates during the study.

[2] = system: non-cirrhotic subjects with NASH; experiment: Phase 2 trial of Compound 1 in NASH: standard lipid tests and NMR LipoProfile lipoproteins in fasting serum; type: in vivo, human; settings: for HDL-P (total HDL particles), median / HDL-C, median / VLDL-P (total VLDL particles), median / LDL-C, median / TG, median / TC, median / LDL-P (total LDL particles), median: Compound 1 20 mg daily; for HDL-P (total HDL particles), median: BL 30; for HDL-C, median: BL 42; for VLDL-P (total VLDL particles), median: BL 53; for LDL-C, median: BL 99; for TG, median: BL 160; for TC, median: BL 179; for LDL-P (total LDL particles), median: BL 1397
Method: Methods: In this double-blind, placebo-controlled trial, 126 non-cirrhotic subjects with NASH diagnosed noninvasively by MRI proton density fat fraction (PDFF) ≥8% and liver stiffness ≥2.5 kPa by MR elastography (MRE), or historical liver biopsy consistent with NASH and stage 1 to 3 fibrosis, were randomized 2:2:1 to receive Compound 1 20 mg, Compound 1 5 mg, or placebo orally QD for 12 weeks (W12). Centrally-read MRI-PDFF and MRE, and FibroScan and serum markers of fibrosis were measured at baseline and W12. In some subjects, liver stiffness and hepatic fat content by Controlled Attenuation Parameter (CAP) were assessed using transient elastography (FibroScan®; Echosens, Paris, France) at baseline (i.e. week 0) and week 12.
In addition to standard lipid tests (serum triglycerides (“TG”), total cholesterol (“TC”), low density lipoprotein cholesterol (“LDL-C”), and high density lipoprotein cholesterol (“HDL-C”), lipoproteins also were measured by nuclear magnetic resonance spectroscopy (NMR LipoProfile®, LabCorp) in fasting serum samples at baseline (“BL”), week 1 (W1), week 4 (W4), and W12. Changes from BL in Compound 1-treated subjects were evaluated using Wilcoxon sign-rank tests and comparisons vs placebo using Wilcoxon rank-sum tests (all with Bonferroni adjustment).

[3] = split by fibrate/fish oil for > 6 weeks: without n = 47, with n = 12

COc1ccccc1[C@H](Cn1c(=O)n(C(C)(C)C(=O)O)c(=O)c2c(C)c(-c3ncco3)sc21)OC1CCOCC1 [Compound 1, (R)-2-(1-(2-(2-methoxyphenyl)-2-((tetrahydro-2H-pyran-4-yl)oxy)ethyl)-5-methyl-6-(oxazol-2-yl)-2,4-dioxo-1,2-dihydrothieno[2,3-d]pyrimidin-3(4H)-yl)-2-methylpropanoic acid]
≥30% reduction in MRI-PDFF, % of subjects ([1]; all subjects (n = 59)): 49%
≥30% reduction in MRI-PDFF, % of subjects [1, 3]: 43%
ALT, median relative change over 12 weeks ([1]; all subjects (n = 59)): −21.9%
ELF, median relative change over 12 weeks ([1]; all subjects (n = 59)): −0.8%
Fasting Glucose, median relative change over 12 weeks ([1]; all subjects (n = 59)): −2.0%
Hemoglobin A1c, median relative change over 12 weeks ([1]; all subjects (n = 59)): −1.4%
Hyaluronic acid, median relative change over 12 weeks ([1]; all subjects (n = 59)): −5.9%
MRE, median relative change over 12 weeks ([1]; all subjects (n = 59)): −6.6%
MRI-PDFF, median relative change over 12 weeks ([1]; all subjects (n = 59)): −31.0%
PIII-NP, median relative change over 12 weeks ([1]; all subjects (n = 59)): −13.9%
TIMP-1, median relative change over 12 weeks ([1]; all subjects (n = 59)): −8.8%
FibroScan, median relative change over 12 weeks ([1]; all subjects, only Phase 2 study of Example 1): −11.1%
ALT, median relative change over 12 weeks [1, 3]: −19.4%
ELF, median relative change over 12 weeks [1, 3]: −0.35%
Fasting Glucose, median relative change over 12 weeks [1, 3]: −1.9%
Hemoglobin A1c, median relative change over 12 weeks [1, 3]: −1.4%
Hyaluronic acid, median relative change over 12 weeks [1, 3]: −4.5%
MRE, median relative change over 12 weeks [1, 3]: −3.2%
MRI-PDFF, median relative change over 12 weeks [1, 3]: −27.9%
PIII-NP, median relative change over 12 weeks [1, 3]: −13.9%
TIMP-1, median relative change over 12 weeks [1, 3]: −7.85%
FibroScan, median relative change over 12 weeks ([1]; split by fibrate/fish oil for > 6 weeks, only Phase 2 study of Example 1, n = 6 with fibrate/fish oil): −9.8%
Asymptomatic Grade 3 or 4 TG elevations (>500 mg/dL), number of subjects ([2]; Compound 1 5 mg): 9 subjects
Median relative change in triglycerides (TG) ([2]; Compound 1 5 mg, W12): +13%
Asymptomatic Grade 3 or 4 TG elevations (>500 mg/dL), number of subjects ([2]; Compound 1 20 mg): 7 subjects
HDL-P (total HDL particles), median ([2]; W1): 30 µmol/L
HDL-C, median ([2]; W1): 39 mg/dL
VLDL-P (total VLDL particles), median ([2]; W1): 72 nmol/L
LDL-C, median ([2]; W1): 102 mg/dL
TG, median ([2]; W1): 191 mg/dL
TC, median ([2]; W1): 192 mg/dL
LDL-P (total LDL particles), median ([2]; W1): 1260 nM
HDL-P (total HDL particles), median ([2]; W4): 30 µmol/L
HDL-C, median ([2]; W4): 39 mg/dL
VLDL-P (total VLDL particles), median ([2]; W4): 52 nmol/L
LDL-C, median ([2]; W4): 96 mg/dL
TG, median ([2]; W4): 188 mg/dL
TC, median ([2]; W4): 184 mg/dL
LDL-P (total LDL particles), median ([2]; W4): 1360 nM
HDL-P (total HDL particles), median ([2]; W12): 30 µmol/L
HDL-C, median ([2]; W12): 42 mg/dL
VLDL-P (total VLDL particles), median ([2]; W12): 52 nmol/L
LDL-C, median ([2]; W12): 99 mg/dL
TG, median ([2]; W12): 177 mg/dL
TC, median ([2]; W12): 182 mg/dL
LDL-P (total LDL particles), median ([2]; W12): 1230 nM
Changes in glucose, insulin, or HbA1c compared to placebo ([2]; Compound 1 20 mg or 5 mg): no significant changes
Median relative change in triglycerides (TG) ([2]; Compound 1 20 mg, W12): +11%
Changes from baseline in HDL-C, TC, and LDL-C ([2]; Compound 1-treated subjects, W12): not significant
Median TG increase ([2]; Compound 1-treated subjects, W12, IQR (−6, 72), p=0.14 vs placebo): 14 mg/dL
Changes in total HDL or total LDL particles ([2]; subjects on Compound 1): No significant changes
Time course of TG elevations ([2]; subjects on Compound 1): peaked at W1 and declined thereafter
